Results from ChEMBL document CHEMBL3885861, “Open TG-GATES”.

Species on record: Rattus norvegicus
Assay: Open TG-GATES - Regimen: Single
Assay type: toxicity, organism-based, Sprague-Dawley
Parameters: regimen Single, gender Male, age 6 weeks
Settings: in vivo, po, 0 mg/kg, route gavage, dose level Control; for APTT / Bas / Eos / Fbg / Hb / Ht / Lym / MCH / MCHC / MCV / Mono / Neu / PT / Plat / RBC / Ret / WBC: tissue Blood; for KIDNEY_L / KIDNEY_R / KIDNEY_TOTAL: tissue Kidney; for LIVER: tissue Liver; for A/G / ALP / ALT / AST / BUN / CRE / Ca / Cl / DBIL / GLC / IP / K / LDH / Na / PL / RALB / TBIL / TC / TG / TP / gamma-GTP: tissue Plasma

SMILES: CCO [ALCOHOL]
- TERMINAL_BW (3 h): 207 g
- APTT (3 h): 17.7 s
- Bas (3 h): 0%
- Eos (3 h): 1%
- Fbg (3 h): 200.4 mg/dL
- Hb (3 h): 13.3 g/dL
- Ht (3 h): 39.9%
- Lym (3 h): 76%
- MCH (3 h): 21.5 pg
- MCHC (3 h): 33.4%
- MCV (3 h): 64.2 fL
- Mono (3 h): 7.6%
- Neu (3 h): 15.2%
- PT (3 h): 12 s
- Plat (3 h): 110.3 x10_4/uL
- RBC (3 h): 622.4 x10_4/ul
- Ret (3 h): 8.9%
- WBC (3 h): 99.3 x10_2/uL
- KIDNEY_L (3 h): 0.9 g
- KIDNEY_R (3 h): 1 g
- KIDNEY_TOTAL (3 h): 1.9 g
- LIVER (3 h): 9.6 g
- A/G (3 h): 2.7
- ALP (3 h): 951 IU/L
- ALT (3 h): 39.2 IU/L
- AST (3 h): 69 IU/L
- BUN (3 h): 13 mg/dL
- CRE (3 h): 0.5 mg/dL
- Ca (3 h): 10.8 mg/dL
- Cl (3 h): 103.8 meq/L
- DBIL (3 h): 0.02 mg/dL
- GLC (3 h): 192 mg/dL
- IP (3 h): 8.7 mg/dL
- K (3 h): 4.5 meq/L
- LDH (3 h): 103.2 IU/L
- Na (3 h): 140 meq/L
- PL (3 h): 145.8 mg/dL
- RALB (3 h): 3.9 g/dL
- TBIL (3 h): 0.4 mg/dL
- TC (3 h): 83.8 mg/dL
- TG (3 h): 59.6 mg/dL
- TP (3 h): 5.3 g/dL
- gamma-GTP (3 h): 1.4 IU/L
- TERMINAL_BW (6 h): 207 g
- APTT (6 h): 18.8 s
- Bas (6 h): 0%
- Eos (6 h): 1%
- Fbg (6 h): 212 mg/dL
- Hb (6 h): 13.9 g/dL
- Ht (6 h): 41.4%
- Lym (6 h): 74%
- MCH (6 h): 21.8 pg
- MCHC (6 h): 33.5%
- MCV (6 h): 64.9 fL
- Mono (6 h): 9.2%
- Neu (6 h): 15.8%
- PT (6 h): 11.8 s
- Plat (6 h): 116.1 x10_4/uL
- RBC (6 h): 638.8 x10_4/ul
- Ret (6 h): 10.4%
- WBC (6 h): 90.5 x10_2/uL
- KIDNEY_L (6 h): 0.9 g
- KIDNEY_R (6 h): 1 g
- KIDNEY_TOTAL (6 h): 1.9 g
- LIVER (6 h): 9.6 g
- A/G (6 h): 2.4
- ALP (6 h): 727.6 IU/L
- ALT (6 h): 32.4 IU/L
- AST (6 h): 58.2 IU/L
- BUN (6 h): 11 mg/dL
- CRE (6 h): 0.5 mg/dL
- Ca (6 h): 10.4 mg/dL
- Cl (6 h): 105.2 meq/L
- DBIL (6 h): 0.06 mg/dL
- GLC (6 h): 184.8 mg/dL
- IP (6 h): 9.6 mg/dL
- K (6 h): 4.8 meq/L
- LDH (6 h): 62 IU/L
- Na (6 h): 139.6 meq/L
- PL (6 h): 141.8 mg/dL
- RALB (6 h): 3.8 g/dL
- TBIL (6 h): 0.4 mg/dL
- TC (6 h): 80.8 mg/dL
- TG (6 h): 55 mg/dL
- TP (6 h): 5.4 g/dL
- gamma-GTP (6 h): 2 IU/L
- TERMINAL_BW (9 h): 201.1 g
- APTT (9 h): 20.7 s
- Bas (9 h): 0%
- Eos (9 h): 1%
- Fbg (9 h): 199.2 mg/dL
- Hb (9 h): 13.5 g/dL
- Ht (9 h): 40.1%
- Lym (9 h): 66%
- MCH (9 h): 21.8 pg
- MCHC (9 h): 33.7%
- MCV (9 h): 64.6 fL
- Mono (9 h): 9.2%
- Neu (9 h): 23.6%
- PT (9 h): 12.2 s
- Plat (9 h): 112.2 x10_4/uL
- RBC (9 h): 620.8 x10_4/ul
- Ret (9 h): 11.7%
- WBC (9 h): 75.4 x10_2/uL
- KIDNEY_L (9 h): 0.9 g
- KIDNEY_R (9 h): 0.9 g
- KIDNEY_TOTAL (9 h): 1.9 g
- LIVER (9 h): 8.3 g
- A/G (9 h): 2.8
- ALP (9 h): 861 IU/L
- ALT (9 h): 30.8 IU/L
- AST (9 h): 66.8 IU/L
- BUN (9 h): 13.4 mg/dL
- CRE (9 h): 0.5 mg/dL
- Ca (9 h): 10.7 mg/dL
- Cl (9 h): 106.4 meq/L
- DBIL (9 h): 0.038 mg/dL
- GLC (9 h): 196.2 mg/dL
- IP (9 h): 9.8 mg/dL
- K (9 h): 5.1 meq/L
- LDH (9 h): 74.6 IU/L
- Na (9 h): 137.4 meq/L
- PL (9 h): 133.4 mg/dL
- RALB (9 h): 3.9 g/dL
- TBIL (9 h): 0.4 mg/dL
- TC (9 h): 74 mg/dL
- TG (9 h): 46.6 mg/dL
- TP (9 h): 5.3 g/dL
- gamma-GTP (9 h): 2 IU/L
- TERMINAL_BW (24 h): 219 g
- APTT (24 h): 17.7 s
- Bas (24 h): 0%
- Eos (24 h): 1.4%
- Fbg (24 h): 207.4 mg/dL
- Hb (24 h): 13.5 g/dL
- Ht (24 h): 39.6%
- Lym (24 h): 74.8%
- MCH (24 h): 22.3 pg
- MCHC (24 h): 34%
- MCV (24 h): 65.6 fL
- Mono (24 h): 9.8%
- Neu (24 h): 14.6%
- PT (24 h): 11.6 s
- Plat (24 h): 115.5 x10_4/uL
- RBC (24 h): 604 x10_4/ul
- Ret (24 h): 10%
- WBC (24 h): 101.6 x10_2/uL
- KIDNEY_L (24 h): 1 g
- KIDNEY_R (24 h): 1 g
- KIDNEY_TOTAL (24 h): 2 g
- LIVER (24 h): 10.4 g
- A/G (24 h): 2.6
- ALP (24 h): 862 IU/L
- ALT (24 h): 39.8 IU/L
- AST (24 h): 64.8 IU/L
- BUN (24 h): 17.2 mg/dL
- CRE (24 h): 0.5 mg/dL
- Ca (24 h): 10.9 mg/dL
- Cl (24 h): 103.4 meq/L
- DBIL (24 h): 0.006 mg/dL
- GLC (24 h): 194.4 mg/dL
- IP (24 h): 8.5 mg/dL
- K (24 h): 4.7 meq/L
- LDH (24 h): 87.8 IU/L
- Na (24 h): 139 meq/L
- PL (24 h): 150.2 mg/dL
- RALB (24 h): 4 g/dL
- TBIL (24 h): 0.3 mg/dL
- TC (24 h): 83 mg/dL
- TG (24 h): 100.8 mg/dL
- TP (24 h): 5.5 g/dL
- gamma-GTP (24 h): 1.4 IU/L
